The assay deals with CHO cells. In words: Voltage dependent quenching of WGA-F1 fluorescence in response to changes in the potassium diffusion potential. The format is cell-based, Chinese hamster. The settings on record: excitation 475 nm. Here is the method:
Crystal violet was purchased from Fischer Scientific. Fluorescein labeled wheat germ agglutinin (WGA-F1) was purchased from Sigma Chemical. Valinomycin was purchased from Sigma Chemical Chinese hamster ovary cells (CHO) were grown in Ham's F12 media (Irvine Scientific) with 10% fetal bovine serum and 1% penicillin/streptomycin. Adherent cells were harvested using phosphate buffered saline with 0.5 mM EDTA (Irvine Scientific). Cells were washed in Hank's buffered saline solution (HBSS) containing 20 mM Hepes at pH 7.2. Cells suspended in HBSS at a concentration of 10^6 cells/ml were stained with 2 μg/ml WGA-F1 and 40 nM crystal violet for 15 minutes at room temperature. The cells were washed with HBSS and suspended in HBSS containing 1 μM sulforhodamine 101 (Sigma Chemical). Sulforhodamine 101 was used as a voltage insensitive volume marker to account for possible dilution artifacts. […] Fluorescence measurements on cell suspensions were made at room temperature using a FluoroMax-2 fluorometer (Spex). […]
The cationic quencher will redistribute from the intracellular side of the plasma membrane to the extracellular side as the cell is depolarized. […] The fluorescein fluorescence in the depolarized cells is decreased by 20% compared to the hyperpolarized cells. No difference is seen in sulforhodamine 101 fluorescence.
Octadecyl rhodamine B (R18) was purchased from Molecular Probes. […] Fluorescence measurements on cell suspensions were made at room temperature using a FluoroMax-2 fluorometer (Spex). […]
The cationic quencher redistributes from the intracellular side of the plasma membrane to the extracellular side as the cell is depolarized. […] The fluorescein fluorescence in the depolarized cells is decreased by 3% and the rhodamine fluorescence is increased by 2% compared to the hyperpolarized cells. The observed changes in fluorescein and R18 fluorescence are consistent with the translocation-dependent changes in fluorescence resonance energy transfer.

Setting [1] is: CHO cells stained with 2 μg/ml WGA-F1 and 500 nM R18, high potassium vs high sodium buffer, valinomycin.

Take `CCCCCCCCCCCCCCCCCCOC(=O)c1ccccc1-c1c2ccc(=[N+](CC)CC)cc-2oc2cc(N(CC)CC)ccc12.[Cl-]` [R18, Octadecyl rhodamine B]: under setting [1], the “decrease of fluorescein fluorescence in the depolarized cells compared to the hyperpolarized cells” value is on record as 3% and the “increase of rhodamine fluorescence (sensitized emission) in the depolarized cells compared to the hyperpolarized cells” value is 2%.

For `CN(C)c1ccc(C(=C2C=CC(=[N+](C)C)C=C2)c2ccc(N(C)C)cc2)cc1` [crystal violet], the “decrease of fluorescein fluorescence in the depolarized cells compared to the hyperpolarized cells” value (CHO cells stained with 2 μg/ml WGA-F1 and 40 nM crystal violet, high potassium buffer (126 mM K+) vs high sodium buffer (6 mM K+), 5 μM valinomycin) came out at 20%.

Source of the values: patent publication US6468763B1, “Optical detection of transmembrane potential changes” (Caliper Technologies Corp., priority 1999, dated 2002).
